The record followed here is PubChem BioAssay (NCI).

Test systems include MCF7 breast; HCT-15 colon; SK-MEL-28 melanoma; OVCAR-8 ovarian; SK-MEL-2 melanoma; EKVX NSCLC; ACHN renal; SK-MEL-5 melanoma; SF-268 CNS; HS 578T breast.
Experiment in all cases: NCI tumour cell line growth inhibition, 48 h

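Dose response: 5 concentrations. Exposure: 48 h. Format: 96-well plates. Endpoint: linear interpolation; highest concentration if not reached. Abbreviation: GI50, concentration required for 50% inhibition of growth. At the TGI there is no net growth.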

As to `O=[N+]([O-])c1ccc(Sc2ccncn2)c([N+](=O)[O-])c1`, the GI50 in the assay on MCF7 breast is 2.46 µM; in the assay with HCT-15 colon, 3.07 µM; in the assay with SK-MEL-28 melanoma, 4.31 µM; in the assay on OVCAR-8 ovarian it was 3.47 µM; with SK-MEL-2 melanoma it was 2.96 µM; in the assay on EKVX NSCLC, 2.39 µM. Moreover, the GI50 in the assay on ACHN renal was 2.16 µM; with SK-MEL-5 melanoma it was 3.27 µM; with SF-268 CNS, 2.75 µM; with HS 578T breast, 3.06 µM. Also, the TGI stood at 7.74 µM with MCF7 breast; 9.93 µM in the assay with HCT-15 colon; 9.44 µM in the assay on SK-MEL-28 melanoma; 13.3 µM in the assay with OVCAR-8 ovarian; 8.96 µM with SK-MEL-2 melanoma; 8.3 µM in the assay on EKVX NSCLC. In addition, the TGI in the assay with ACHN renal is 5.82 µM; in the assay with SK-MEL-5 melanoma, 11.7 µM; in the assay with SF-268 CNS, 10.2 µM; in the assay with HS 578T breast it was 24.2 µM.

As to `Nc1c(F)cc(-c2nc3cc(F)ccc3[se]2)cc1Br`, the GI50 with MCF7 breast was 0.0267 µM; with HCT-15 colon it was 0.0476 µM; in the assay on SK-MEL-28 melanoma it was above 100 µM; with OVCAR-8 ovarian it was 42.1 µM; with SK-MEL-2 melanoma, 75 µM; in the assay on EKVX NSCLC, 0.209 µM. In addition, the GI50 was 2 µM with ACHN renal, 0.104 µM in the assay with SK-MEL-5 melanoma, 29.4 µM with SF-268 CNS and 44.7 µM in the assay on HS 578T breast. In addition, the TGI in the assay with MCF7 breast, in the assay on HCT-15 colon, in the assay with SK-MEL-28 melanoma, in the assay with OVCAR-8 ovarian, with SK-MEL-2 melanoma and in the assay with EKVX NSCLC was above 100 µM each time. Also, the TGI in the assay on ACHN renal, in the assay with SK-MEL-5 melanoma, with SF-268 CNS and with HS 578T breast was above 100 µM each time.

On to `O=C(/C=C/OC(=O)c1cccc(Cl)c1)c1ccc(Cl)cc1`, for which the GI50 in the assay on MCF7 breast was 48.7 µM; with HCT-15 colon, 50.7 µM; in the assay with SK-MEL-28 melanoma, 58.1 µM; with OVCAR-8 ovarian, 46.4 µM; in the assay with SK-MEL-2 melanoma, above 73.1 µM; in the assay on EKVX NSCLC it was above 100 µM. Moreover, the GI50 was 52.3 µM in the assay with ACHN renal, 55.2 µM in the assay on SK-MEL-5 melanoma, 41.9 µM in the assay on SF-268 CNS and 23.2 µM in the assay with HS 578T breast. Besides, the TGI in the assay on MCF7 breast, in the assay with HCT-15 colon, in the assay on SK-MEL-28 melanoma, in the assay on OVCAR-8 ovarian, in the assay on SK-MEL-2 melanoma and with EKVX NSCLC was above 100 µM in each case. Further, the TGI in the assay with ACHN renal is above 100 µM; in the assay with SK-MEL-5 melanoma, above 100 µM; in the assay on SF-268 CNS, above 100 µM; with HS 578T breast, above 70.4 µM.

On to `Cn1c2ccccc2c2c(=O)n(CCCC(=O)OC(=NC3CCCCC3)NC3CCCCC3)c3c(-c4ccccc4)nnn3c21`, for which the GI50 in the assay on MCF7 breast is 64.1 µM; in the assay with HCT-15 colon it was above 100 µM; with SK-MEL-28 melanoma, above 100 µM; with OVCAR-8 ovarian, above 100 µM; in the assay with SK-MEL-2 melanoma, above 100 µM; in the assay with EKVX NSCLC, above 100 µM. For the same molecule, the GI50 in the assay with ACHN renal was above 100 µM; in the assay with SK-MEL-5 melanoma it was above 100 µM; in the assay with SF-268 CNS, 98.2 µM; with HS 578T breast, above 100 µM. The TGI in the assay with MCF7 breast, in the assay with HCT-15 colon, with SK-MEL-28 melanoma, in the assay with OVCAR-8 ovarian, with SK-MEL-2 melanoma and with EKVX NSCLC was above 100 µM each time. For the same molecule, the TGI in the assay on ACHN renal, in the assay with SK-MEL-5 melanoma, in the assay on SF-268 CNS and in the assay on HS 578T breast was above 100 µM each time.

On to `COc1ccc(N(C)c2nc(Cl)nc3cnn(C)c23)cc1`, for which the GI50 in the assay on MCF7 breast was below 0.01 µM; in the assay on HCT-15 colon it was below 0.01 µM; in the assay on SK-MEL-28 melanoma, 12.8 µM; in the assay on OVCAR-8 ovarian it was 0.0192 µM; in the assay with SK-MEL-2 melanoma, below 0.01 µM; with EKVX NSCLC, below 0.0178 µM. Besides, the GI50 with ACHN renal is below 0.0145 µM; in the assay on SK-MEL-5 melanoma, below 0.01 µM; in the assay on SF-268 CNS it was below 0.0112 µM; with HS 578T breast, below 0.01 µM. Further, the TGI with MCF7 breast, in the assay on HCT-15 colon, in the assay on SK-MEL-28 melanoma, with OVCAR-8 ovarian, with SK-MEL-2 melanoma and in the assay with EKVX NSCLC was above 100 µM each time. The TGI in the assay with ACHN renal was above 100 µM; in the assay on SK-MEL-5 melanoma, 0.0874 µM; in the assay on SF-268 CNS it was above 100 µM; in the assay with HS 578T breast it was above 100 µM.

Regarding `CCCN1CCC(c2ccc(Nc3nc(Nc4cc(F)ccc4C(N)=O)c4cc[nH]c4n3)c(OC)c2)CC1`, the GI50 with MCF7 breast is 0.0185 µM; in the assay with HCT-15 colon it was 0.54 µM; in the assay on SK-MEL-28 melanoma it was 4.19 µM; with OVCAR-8 ovarian, 2.23 µM; in the assay with SK-MEL-2 melanoma, 1.86 µM; in the assay with EKVX NSCLC, 0.725 µM. Moreover, the GI50 in the assay on ACHN renal was 3.13 µM; in the assay on SK-MEL-5 melanoma, 3.41 µM; in the assay with SF-268 CNS it was 3.42 µM; with HS 578T breast, 3.84 µM. For the same molecule, the TGI with MCF7 breast came out at 4.23 µM; in the assay on HCT-15 colon it was 15.1 µM; in the assay with SK-MEL-28 melanoma, 8.1 µM; in the assay on OVCAR-8 ovarian it was 7.79 µM; in the assay on SK-MEL-2 melanoma, 5.78 µM; with EKVX NSCLC, 8.18 µM. The TGI in the assay on ACHN renal was 7.03 µM; in the assay on SK-MEL-5 melanoma, 6.63 µM; with SF-268 CNS, 7.8 µM; in the assay on HS 578T breast it was 12.3 µM.

Regarding `COc1ccc2c(c1OC(C)=O)C1=CC(=O)CCC13CCNC3C2` (stereo not given), the TGI with MCF7 breast, in the assay on HCT-15 colon, in the assay with SK-MEL-28 melanoma, with OVCAR-8 ovarian, in the assay on SK-MEL-2 melanoma and with EKVX NSCLC was above 100 µM in each case. The TGI in the assay with ACHN renal, with SK-MEL-5 melanoma, with SF-268 CNS and with HS 578T breast was above 100 µM each time.

For the molecule `CC1=C([Se]CC(OC(=O)[C@@H](CO)NC(=O)OC(C)(C)C)C(=O)NCCCCCC(=O)OCc2ccccc2)C(=O)c2ccccc2C1=O` (stereo not given in full), the GI50 in the assay on MCF7 breast was 1.61 µM; in the assay on HCT-15 colon it was 1.93 µM; in the assay on SK-MEL-28 melanoma, 1.79 µM; with OVCAR-8 ovarian it was 1.84 µM; in the assay on SK-MEL-2 melanoma, 2.26 µM; with EKVX NSCLC, 1.81 µM. For the same molecule, the GI50 in the assay with ACHN renal was 1.65 µM; in the assay on SK-MEL-5 melanoma it was 1.59 µM; in the assay on SF-268 CNS it was 1.85 µM; with HS 578T breast, 1.99 µM. For the same molecule, the TGI in the assay with MCF7 breast amounted to 3.36 µM; in the assay on HCT-15 colon, 3.77 µM; in the assay on SK-MEL-28 melanoma, 3.21 µM; with OVCAR-8 ovarian, 3.36 µM; in the assay on SK-MEL-2 melanoma, 4.08 µM; in the assay on EKVX NSCLC, 3.87 µM. In addition, the TGI with ACHN renal amounted to 3.07 µM; in the assay with SK-MEL-5 melanoma it was 2.96 µM; with SF-268 CNS it was 3.27 µM; in the assay with HS 578T breast it was 4.64 µM.

For `COC1=CC(=O)c2nc(Cl)ccc2C1=O`, the GI50 is 1.91 µM in the assay on MCF7 breast; 2.03 µM with HCT-15 colon; 1.88 µM in the assay on SK-MEL-28 melanoma; 1.68 µM with OVCAR-8 ovarian; 2.07 µM in the assay on SK-MEL-2 melanoma; 1.78 µM with EKVX NSCLC. Moreover, the GI50 in the assay with ACHN renal was 1.67 µM; with SK-MEL-5 melanoma it was 1.66 µM; with SF-268 CNS, 1.65 µM; with HS 578T breast, 2.22 µM. In addition, the TGI in the assay on MCF7 breast was found to be 4.19 µM; in the assay with HCT-15 colon, 4.55 µM; in the assay with SK-MEL-28 melanoma, 3.47 µM; in the assay on OVCAR-8 ovarian, 3.11 µM; in the assay with SK-MEL-2 melanoma, 3.98 µM; in the assay with EKVX NSCLC it was 3.53 µM. For the same molecule, the TGI was found to be 3.04 µM in the assay on ACHN renal, 3.02 µM in the assay with SK-MEL-5 melanoma, 3.19 µM in the assay with SF-268 CNS and 6.18 µM in the assay on HS 578T breast.

On to `COc1cc2c(cc1C)NC(=O)/C2=C\c1c[nH]c2ccccc12`, for which the GI50 in the assay on MCF7 breast was 12.4 µM; in the assay with HCT-15 colon, 7.16 µM; with SK-MEL-28 melanoma, 21.7 µM; with OVCAR-8 ovarian it was 20.3 µM; with SK-MEL-2 melanoma, 4.04 µM; in the assay with EKVX NSCLC, 10.9 µM. Also, the GI50 in the assay with ACHN renal is 11.5 µM; in the assay with SK-MEL-5 melanoma, 14.9 µM; with SF-268 CNS, 12 µM; in the assay on HS 578T breast it was 14.5 µM. Further, the TGI in the assay on MCF7 breast stood at 49.7 µM; with HCT-15 colon, 25.4 µM; in the assay with SK-MEL-28 melanoma, 69.5 µM; with OVCAR-8 ovarian it was 67.2 µM; with SK-MEL-2 melanoma, 25 µM; with EKVX NSCLC, 29.7 µM. Moreover, the TGI with ACHN renal stood at 27.3 µM; in the assay on SK-MEL-5 melanoma, 30.5 µM; with SF-268 CNS it was 36.3 µM; in the assay on HS 578T breast, 47.9 µM.
